Laboratory results as given in paper PMC9168620, “Genetic validation of Aspergillus fumigatus phosphoglucomutase as a viable therapeutic target in invasive aspergillosis” (The Journal of Biological Chemistry, 2022).
Converted amounts (≈) assume the structure as drawn. “Also recorded” adds a separate entry of the source. Where two headings read alike, the source gives them in different places.

Assays:
AfPGM [1] = biological target: T1, AfPGM (Aspergillus fumigatus, UniProt Q4WY53); test: biochemical
T1 construct: Full length AfPGM; 6His-GST (N, cleaved yes); made in house; host or cells: E. coli BL21 (DE3) pLysS
T1 sequence (Q4WY53 whole entry): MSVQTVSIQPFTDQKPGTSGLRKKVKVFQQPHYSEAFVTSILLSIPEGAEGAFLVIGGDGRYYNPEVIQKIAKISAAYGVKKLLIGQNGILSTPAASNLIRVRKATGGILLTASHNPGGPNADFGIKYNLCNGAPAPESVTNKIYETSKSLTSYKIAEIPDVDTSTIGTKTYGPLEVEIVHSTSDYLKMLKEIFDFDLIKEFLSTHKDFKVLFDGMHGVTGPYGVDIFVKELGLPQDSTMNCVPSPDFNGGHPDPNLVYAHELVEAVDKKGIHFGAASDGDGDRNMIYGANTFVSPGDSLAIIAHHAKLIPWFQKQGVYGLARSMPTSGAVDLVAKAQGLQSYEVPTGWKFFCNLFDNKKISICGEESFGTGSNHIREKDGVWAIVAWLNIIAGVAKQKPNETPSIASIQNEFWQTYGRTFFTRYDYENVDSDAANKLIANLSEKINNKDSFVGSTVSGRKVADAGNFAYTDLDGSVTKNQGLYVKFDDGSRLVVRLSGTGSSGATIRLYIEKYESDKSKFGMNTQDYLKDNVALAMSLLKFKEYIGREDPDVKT
Description: (§1) The reaction mixture contained MOPS–NaOH (pH 7.4; 50 mM), MgSO4 (1.5 mM), NADP^+ (1 mM), G6PDH (0.01 U) from L. mesenteroides, Glc-1P (500 μM), Glc-1,6-2P (50 μM), and enzyme (5 nM). The reaction was carried out at 25 °C for 6 min in a total volume of 100 μl. Formation of NADPH was detected in real-time (every 1.5 min), measuring fluorescence signal (excitation at 360 nm; emission at 460 nm). To measure the inhibitory activity, compounds with different concentrations (3% (v/v) DMSO) were added to the reaction system. IC50 values were calculated using the product (NADPH) concentration at 6 min with 500 μM Glc-1P.
(§2) Figure S11: Representative enzyme activity assays for PGMs. Error bars represent standard deviation of three determinations. Panel A and B show the time course of PGMs and PGM mutants in which sugar recognition glutamates are mutated to glutamine. […] Values in parentheses indicate the time at which DTT (1 mM) was added.

AfPGMC353∗ [2] = biological target: T2, AfPGMC353∗ (Aspergillus fumigatus, UniProt Q4WY53, C131S/C242S/C364S); test: G6PDH coupled assay for PGM, AfPGMC353∗ variant (C353 the sole cysteine); format: biochemical; conditions: IC50 AfPGMC353, AfPGMC353∗ (all other cysteines mutated to serine) 5 nM, no preincubation
T2 construct: Full length AfPGM; 6His-GST (N, cleaved yes); made in house; host or cells: E. coli BL21 (DE3) pLysS
T2 sequence (Q4WY53 whole entry C131S/C242S/C364S): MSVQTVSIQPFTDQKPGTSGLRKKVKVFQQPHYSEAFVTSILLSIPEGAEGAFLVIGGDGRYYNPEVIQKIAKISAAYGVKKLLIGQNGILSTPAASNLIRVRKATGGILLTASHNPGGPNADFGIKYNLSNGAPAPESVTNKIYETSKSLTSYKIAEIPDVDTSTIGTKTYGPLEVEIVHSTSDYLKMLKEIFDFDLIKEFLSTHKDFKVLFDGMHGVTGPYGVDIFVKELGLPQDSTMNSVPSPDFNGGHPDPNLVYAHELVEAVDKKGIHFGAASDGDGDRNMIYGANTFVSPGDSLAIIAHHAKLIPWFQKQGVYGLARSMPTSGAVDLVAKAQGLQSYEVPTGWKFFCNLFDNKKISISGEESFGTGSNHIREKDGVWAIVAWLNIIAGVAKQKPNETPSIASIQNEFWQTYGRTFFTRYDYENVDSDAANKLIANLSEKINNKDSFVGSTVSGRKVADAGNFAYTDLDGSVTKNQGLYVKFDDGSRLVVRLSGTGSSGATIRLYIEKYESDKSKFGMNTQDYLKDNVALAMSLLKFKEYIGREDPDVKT
Description: as §1

HsPGM = biological target: T3, HsPGM (Homo sapiens, UniProt P36871); test: G6PDH coupled assay for PGM, HsPGM; format: biochemical
T3 construct: Full length HsPGM; 6His-GST (N, cleaved yes); made in house; host or cells: E. coli BL21 (DE3) pLysS (same protocol as AfPGM)
T3 sequence (P36871 1-562): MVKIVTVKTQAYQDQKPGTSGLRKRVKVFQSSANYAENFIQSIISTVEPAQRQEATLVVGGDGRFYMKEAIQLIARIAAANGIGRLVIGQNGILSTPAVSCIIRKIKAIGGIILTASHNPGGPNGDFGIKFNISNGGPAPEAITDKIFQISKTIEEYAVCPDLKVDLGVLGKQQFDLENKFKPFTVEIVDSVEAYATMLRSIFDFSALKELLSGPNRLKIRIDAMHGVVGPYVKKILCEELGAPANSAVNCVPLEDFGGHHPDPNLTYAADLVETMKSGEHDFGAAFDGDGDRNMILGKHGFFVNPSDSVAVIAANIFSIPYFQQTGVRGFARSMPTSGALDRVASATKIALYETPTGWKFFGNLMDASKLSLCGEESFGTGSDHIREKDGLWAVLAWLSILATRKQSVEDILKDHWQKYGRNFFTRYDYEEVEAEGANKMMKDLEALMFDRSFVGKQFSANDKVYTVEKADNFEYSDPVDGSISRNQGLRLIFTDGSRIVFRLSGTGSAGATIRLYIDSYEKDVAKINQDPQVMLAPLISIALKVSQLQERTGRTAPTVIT
Description: as §1, §2

CaPGM = biological target: T4, CaPGM (Candida albicans, UniProt A0A1D8PSA9); test: G6PDH coupled assay for PGM, WT CaPGM; format: biochemical; conditions: 5 nM enzyme, no preincubation
T4 sequence (A0A1D8PSA9 1-560): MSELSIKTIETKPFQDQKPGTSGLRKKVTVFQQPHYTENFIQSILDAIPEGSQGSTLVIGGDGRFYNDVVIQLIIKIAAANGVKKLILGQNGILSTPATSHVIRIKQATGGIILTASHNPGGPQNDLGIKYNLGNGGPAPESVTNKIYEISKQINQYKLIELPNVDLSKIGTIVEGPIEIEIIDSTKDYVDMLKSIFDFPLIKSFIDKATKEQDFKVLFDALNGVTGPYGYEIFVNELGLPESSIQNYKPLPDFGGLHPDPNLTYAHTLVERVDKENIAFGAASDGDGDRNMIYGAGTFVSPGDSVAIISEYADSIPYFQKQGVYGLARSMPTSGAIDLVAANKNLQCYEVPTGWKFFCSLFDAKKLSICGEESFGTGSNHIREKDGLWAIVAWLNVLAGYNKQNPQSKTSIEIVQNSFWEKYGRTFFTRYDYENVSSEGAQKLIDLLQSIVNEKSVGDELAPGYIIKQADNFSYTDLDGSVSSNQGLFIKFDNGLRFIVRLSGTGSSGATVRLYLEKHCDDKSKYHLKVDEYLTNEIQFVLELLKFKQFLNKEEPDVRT
Description: as §1

CaPGMC359S = biological target: T5, CaPGMC359S (Candida albicans, UniProt A0A1D8PSA9, C359S); test: G6PDH coupled assay for PGM, CaPGM C359S mutant; format: biochemical; conditions: 5 nM enzyme, no preincubation
T5 sequence (A0A1D8PSA9 1-560 C359S): T4 sequence (A0A1D8PSA9 1-560)
Description: as §1

AfPGMC353V = biological target: T6, AfPGMC353V (Aspergillus fumigatus, UniProt Q4WY53, C353V); test: G6PDH coupled assay for PGM, AfPGM C353V mutant; format: biochemical; conditions: 5 nM enzyme, no preincubation
T6 construct: Full length AfPGM; 6His-GST (N, cleaved yes); made in house; host or cells: E. coli BL21 (DE3) pLysS
T6 sequence (Q4WY53 whole entry C353V): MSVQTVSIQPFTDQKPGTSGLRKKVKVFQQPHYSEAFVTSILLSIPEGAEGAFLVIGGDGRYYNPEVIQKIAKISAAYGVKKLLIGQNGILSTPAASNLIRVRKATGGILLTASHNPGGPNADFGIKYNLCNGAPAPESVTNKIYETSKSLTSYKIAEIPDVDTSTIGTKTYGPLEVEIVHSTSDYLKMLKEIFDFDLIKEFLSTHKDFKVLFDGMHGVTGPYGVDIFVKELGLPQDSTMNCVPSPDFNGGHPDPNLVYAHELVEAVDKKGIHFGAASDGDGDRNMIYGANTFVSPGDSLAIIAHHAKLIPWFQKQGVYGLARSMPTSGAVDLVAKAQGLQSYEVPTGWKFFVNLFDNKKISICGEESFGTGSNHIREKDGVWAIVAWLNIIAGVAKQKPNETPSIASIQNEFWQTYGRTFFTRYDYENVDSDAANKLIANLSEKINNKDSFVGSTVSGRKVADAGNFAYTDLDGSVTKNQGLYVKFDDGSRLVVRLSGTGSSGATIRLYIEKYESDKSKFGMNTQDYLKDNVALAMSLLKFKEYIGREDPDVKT
Description: as §1

A. fumigatus = test: Growth inhibition (MIC) of A. fumigatus; format: cell-based; conditions: Aspergillus fumigatus; preliminary experiments
Excerpt: Figure S12: Limited correlation between minimal inhibitory concentrations (MIC) and IC50 values of isothiazolone derivatives against AfPGM. […] The R^2 value of linear correlation is 0.15.

AfPGM [3] = biological target: T1, AfPGM; test: Biolayer interferometry fragment binding; conditions: 0 to 500 µM
Description: Amino groups of lysine side chains in PGM were biotinylated (EZ-Link NHSPEG4-Biotin) with one-to-one stoichiometry (one adduct per protein molecule). Biotinylated protein molecules were loaded on streptavidin-immobilized sensors (Super Streptavidin Biosensor). BLI was carried out using an Octet Red 384 instrument (ForteBio). Screening cycles included the baseline phase (protein was incubated for 60 s in screening buffer [25 mM Hepes–NaOH (pH 7.5), 150 mM NaCl, 2% DMSO (v/v]), the association phase (protein was incubated for 60 s in wells containing 200 μM fragment compounds dissolved in the screening buffer), and the dissociation phase (protein was incubated for 60 s in the screening buffer without any fragment compounds). Sensors blocked by biocytin were utilized as a control. Fragment compounds were purchased from Maybridge (1000 fragment compounds). Fragment compounds whose signal values were higher than the median value plus three times robust SD were considered as hits. The confirmation of hits was carried out using dose-response assays. Briefly, a BLI assay was carried out with each hit in a series of concentrations (from 0 to 500 μM). Running cycles included the baseline phase (60 s in the screening buffer), the association phase (120 s in the screening buffer with fragment compounds), and the dissociation phase (120 s in the screening buffer without compounds). […]

AfPGM [4] = biological target: T1, AfPGM; test: AfPGM enzyme kinetics in the presence of ISFP1 (G6PDH coupled assay); format: biochemical
Description: As previously described, two speculated mechanisms, perturbing substrate binding or phosphoryl transfer, have been proposed based on the complex structure of CaPGM-ISFP1. […] As such, the inhibitory mechanism is likely to be a consequence of slowing the rate of phosphoryl transfer.
as §1, §2

AfPGM [5] = biological target: T1, AfPGM; test: Covalent modification, intact protein mass spectrometry, AfPGM; format: binding; conditions: AfPGM:ISFP1 1:20; one adduct per protein molecule; reversed by DTT
Description: (§3) PGM was dissolved to 20 μM in Hepes buffer (25 mM Hepes–NaOH (pH 7.5), 150 mM NaCl) and incubated with compound (protein:compound 1:20; 2% (v/v) DMSO) at 20 °C for 10 min (for AfPGM) or 4 °C overnight (for AfPGMC353∗). Excess compound molecules were removed using desalting column (CentriPure P2, Generon). PGM (20 μM) incubated with DMSO at the same condition was utilized as a control. The removal of isothiazolone adducts was carried out through the incubation with DTT (10 mM) at 20 °C for 10 min. DTT was removed using a desalting column (CentriPure P2, Generon). The ring-opened isothiazolone protein modification was confirmed using intact protein mass spectrometry.

AfPGMC353∗ [6] = biological target: T2, AfPGMC353∗; test: Covalent modification, intact protein mass spectrometry, AfPGMC353∗; format: binding; conditions: AfPGMC353∗:ISFP1 1:20; single adduct on C353
Description: as §3

[7] = 50 µM ISFP1 preincubated 15 min with 5 nM enzyme, DTT 1 mM (Fig. S11G)

O=c1ccsn1-c1cccc(Cl)c1F [ISFP1]
Rescue of AfPGM activity by DTT after inhibition (AfPGM [1]; [7]): rescued by the addition of DTT | IC50 (AfPGM [1]; WT AfPGM 5 nM, no preincubation, 500 μM Glc-1P): 2 µM | IC50 (AfPGMC353∗ [2]): 3 µM | Rescue of HsPGM activity by DTT after inhibition (HsPGM; [7]): could not be rescued by DTT treatment | IC50 (HsPGM; IC50 HsPGM, HsPGM 5 nM, no preincubation, > values: highest concentration at which the compound can solubilize): 80 ± 2 µM | IC50 (HsPGM; enzyme preincubated with compound for 15 min (Fig. S11E, F), read-out: IC50 HsPGM after preincubation): 7.5 µM | IC50 (CaPGM): 5 µM | IC50 (CaPGMC359S): > 400 µM | IC50 CaPGM C359S mutant (CaPGMC359S): No inhibition | Inhibition of AfPGM C353V mutant (AfPGMC353V): does not inhibit; also recorded: not inhibited | MIC (A. fumigatus): 10 µg/mL (≈ 43.5 µM) | Binding to AfPGM by BLI (AfPGM [3]): bound to AfPGM in a concentration-dependent manner | Decrease of AfPGM kcat (AfPGM [4]; 20 μM ISFP1): 10 fold | Change of AfPGM Km (AfPGM [4]; in the presence of ISFP1): remains at the same level | Increase in protein mass after incubation with compound (AfPGM [5]): 232 Da | Increase in protein mass after incubation with compound (AfPGMC353∗ [6]): 232 Da
